According to US20200399632A1, “SENSOR SYSTEMS” (enEvolv, Inc., priority 2018, published 2020):

Experiments:
[1] = test system: E. coli BW25113 Δptsl::kanR pSENSORGFP-PtsI sensor strain; assay: GFP fluorescence of sensor cells encapsulated in droplets with naringenin (microscope); assay type: cell-based; conditions: 500 μM naringenin with sensor cells; 33° C., 48 hours; FIG. 5d
Description: FIGS. 4A-B establish co-culturing of producer cells and sensor cells as a viable strategy for screening. Sensor cells were engineered in an E. coli BW25113 Δptsl::kanR background, which is unable to grow on glucose as a sole carbon source. The glucose transporter ptsl and fluorescence reporter gfp were expressed co-cistronically under the control of a TtgR-regulated promoter on the plasmid pSENSORGFP-PtsI, such that growth and the magnitude of GFP signal are naringenin-dependent. […] Following incubation, the water-in-oil droplets were encapsulated in another aqueous phase, generating water-in-oil-in-water droplets, which were observed on a standard fluorescence activated cell sorter (FACS). […]
2E6 pNARnull, 2E6 pNAR^low, 2E6 pNARhigh, were co-cultured with the E. coli BW25113 Δptsl::kanR pSENSORGFP-PtsI sensor strain described in Example 3. […] Double emulsions were analyzed under the microscope prior to FACS analysis. […]

[2] = Diffusion between droplets: naringenin droplets co-incubated with sensor cell droplets; assay type: physicochemical; conditions: droplets with 500 μM naringenin mixed with sensor cell droplets; 1% Ran Fluorosurfactant in HFE7500; FIG. 6
Description: FIG. 6 is an image showing fluorescence of two sets of droplet co-incubated for 24 hours. The first set of droplets contained 500 μM naringenin and the second set of droplets contained naringenin sensor cells. If diffusion was occurring between the droplets, the sensor cells would become fluorescent over the 24 hour period.
2E6 pNARnull, 2E6 pNAR^low, 2E6 pNARhigh, were co-cultured with the E. coli BW25113 Δptsl::kanR pSENSORGFP-PtsI sensor strain described in Example 3. The four cultures were grown overnight in LB medium, subdiluted 1 to 100 in minimal medium supplemented with the appropriate antibiotic and then grown into log phase. Once in log phase, the E. coli were rinsed 3× with 1× filtered M9 salts and then diluted to an OD600 of 1.0. The 2E6 strains were diluted to an OD600 of 0.01 to ensure that a single producer strain is present in each encapsulated droplet and the sensor cells were diluted to 0.1 to ensure that each droplet gets at least 5 sensor cells. Six sets of droplets were produced, (1) sensor cell only, (2) sensor cell with 500 μM naringenin, (3) 2E6 pNARhigh with sensor cell and 1 mM IPTG, (4) 2E6 pNARnull with sensor cell and 1 mM IPTG, (5), 2E6 pNARlow with sensor cell and 1 mM IPTG, and (6) naringenin only droplets. […] Double emulsions were analyzed under the microscope prior to FACS analysis. […]

[3] = test system: TtgR; assay: TtgR sensor GFP response of MAGE-engineered E. coli MG1655 mutants to exogenously applied naringenin; assay type: cell-based; conditions: naringenin 0, 31, 63 or 125 μM; three MAGE-engineered E. coli MG1655 clones, medium-copy plasmid with TtgR and gfp
Description: The three clones were transformed with a medium-copy plasmid harboring TtgR and gfp under the control of an engineered ttgAp promoter. […] No naringenin pathway enzymes were present during these experiments, eliminating any interference by endogenously produced naringenin. The variation was not resolved upon transferring the sensor system to the genome (not shown) or switching to a high-copy sensor plasmid (FIG. 2A).

In the case of `O=C1C[C@@H](c2ccc(O)cc2)Oc2cc(O)cc(O)c21` [naringenin], the “fluorescence of positive control droplets” value [1] is reported as “very fluorescent”, the diffusion between droplets [2] is reported as “no diffusion between droplets” and the “GFP expression induced in TtgR sensor strains” value [3] is reported as “induced different levels of GFP expression”.
